We go through 30 compounds from patent US10111874B2, “Combination therapies for treatment of cancer” (Araxes Pharma LLC, priority 2014, dated 2018).

Each structure is given as a SMILES string.

For this assay, the target named is T1, KRAS G12C 1-169, his-tagged protein, GDP-loaded (Homo sapiens, UniProt P01116, G12C).
T1 construct: KRAS G12C 1-169, his-tagged protein, GDP-loaded
The assay is described as follows: Biochemical assay: covalent binding to KRAS G12C analyzed by mass spectrometry. Note: test concentration or dose not given here.

Where [1] appears, read: compounds 247-342, measured at 30 min.
[2] abbreviates: compounds 48-246, measured at 2 h.
Where [3] appears, read: compounds 1-47, measured at 24 h.

T1 sequence (P01116 1-169 isoform P01116-2 G12C): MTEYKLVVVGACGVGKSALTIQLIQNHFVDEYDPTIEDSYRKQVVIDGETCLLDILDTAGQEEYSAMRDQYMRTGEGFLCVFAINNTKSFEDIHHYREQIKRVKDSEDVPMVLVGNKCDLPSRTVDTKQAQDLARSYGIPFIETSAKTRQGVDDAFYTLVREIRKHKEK

Consider `C=CC(=O)N1CCN(c2ncnc3cc(-c4cc(OC)cc5ccccc45)c(Cl)cc23)CC1` [Compound I-249, 1-(4-(6-chloro-7-(3-methoxynaphthalen-1-yl)quinazolin-4-yl)piperazin-1-yl)prop-2-en-1-one], for which the Binding % entry under setting [1] is “+ (+indicates binding activity from 5% to 25%)”.

`C=CC(=O)N1CCN(c2ncnc3cc(-c4cccnc4)c(Cl)cc23)CC1` [Compound I-90, 1-(4-(6-chloro-7-(pyridin-3-yl)quinazolin-4-yl)piperazain-1-yl)prop-2-en-1-one]: the Binding % result under setting [2] was “+ (+indicates binding activity from 5% to 25%)”. Regarding `Cc1coc(/C=C(\C#N)C(=O)N2CCN(c3ncnc4cc(-c5ccccc5F)c(Cl)cc34)CC2)n1` [Compound I-259, (E)-2-(4-(6-chloro-7-(2-fluorophenyl)quinazolin-4-yl)piperazine-1-carbonyl)-3-(4-methyloxazol-2-yl)acrylonitrile], under setting [1], the Binding % entry was “+++ (+++indicates binding activity greater than 50% and up to 75%)”. For the compound `C=CC(=O)N1CC(N2CCN(C(=O)CNc3cc(C4CCC4)c(Cl)cc3O)CC2)C1` [II-53, 1-(3-(4-(2-(4-chloro-5-cyclobutyl-2-hydroxyphenylamino)acetyl)piperazin-1-yl)azetidin-1-yl)prop-2-en-1-one], the Binding % result (determined at 2 hrs) is “++ (++indicates binding activity greater than 20%)”.

With `C=CC(=O)N1CCN(c2ncnc3cc(-c4nc(N)ncc4C)c(Cl)cc23)CC1` [Compound I-179, 1-(4-(7-(2-amino-5-methylpyrimidin-4-yl)-6-chloroquinazolin-4-yl)piperazin-1-yl)prop-2-en-1-one], under setting [2], the Binding % entry is given as “+ (+indicates binding activity from 5% to 25%)”. Regarding `C=CC(=O)N1CCN(c2c(C#N)cnc3cc(-c4c(O)ccc5ccccc45)c(Cl)cc23)CC1` [Compound I-260, 4-(4-acryloylpiperazin-1-yl)-6-chloro-7-(2-hydroxynaphthalen-1-yl)quinoline-3-carbonitrile], under setting [1], the Binding % result is “++ (++indicates binding activity greater than 25% and up to 50%)”. As for `C=CC(=O)N1CC(N2CCN(C(=O)CSc3cc(C4CC4)c(Cl)cc3OC)CC2)C1` [II-65, 1-(3-(4-(2-(4-Chloro-5-cyclopropyl-2-methoxyphenylthio)acetyl)piperazin-1-yl)azetidin-1-yl)prop-2-en-1-one], the Binding % entry (determined at 2 hrs) is “+ (+indicates binding activity from 5% to 20%)”.

`C=CC(=O)N1CCN(c2ncnc3cc(-c4c(O)ccc5c4CCCC5)c(Cl)cc23)CC1` [Compound I-250, 1-(4-(6-chloro-7-(2-hydroxy-5,6,7,8-tetrahydronaphthalen-1-yl)quinazolin-4-yl)piperazin-1-yl)prop-2-en-1-one]: the Binding % result under setting [1] is “++ (++indicates binding activity greater than 25% and up to 50%)”.

For the compound `C=CC(=O)N1CCN(c2nc(C)nc3cc(-c4ccccc4)c(Cl)cc23)CC1` [Compound I-95, 1-(4-(6-chloro-2-methyl-7-phenylquinazolin-4-yl)piperazin-1-yl)prop-2-en-1-one], under setting [2], the Binding % entry was “++ (++indicates binding activity greater than 25% and up to 50%)”. As for `C=CC(=O)N1CCN(c2ncnc3cc(Cl)c(-c4cc(F)ccc4Cl)cc23)CC1` [Compound I-23, 1-(4-(7-chloro-6-(2-chloro-5-fluorophenyl)quinazolin-4-yl)piperazin-1-yl)prop-2-en-1-one], under setting [3], the Binding % result is “++ (++indicates binding activity greater than 25% and up to 50%)”. With `C=CC(=O)N1CC(N2CCN(C(=O)CNc3cc(Cl)c(Cl)c(C(N)=O)c3)CC2)C1` [II-44, 5-(2-(4-(1-acryloylazetidin-3-yl)piperazin-1-yl)-2-oxoethylamino)-2,3-dichlorobenzamide], the Binding % result (determined at 24 hrs) is given as “+ (+indicates binding activity from 5% to 15%)”. As for `C=CC(=O)N1CC(N2CCN(C(=O)CNc3cc(C4CC4)c(Cl)cc3O)CC2)C1` [II-35, 1-(3-(4-(2-(4-chloro-5-cyclopropyl-2-hydroxyphenyl-amino)acetyl)piperazin-1-yl)azetidin-1-yl)prop-2-en-1-one], for the setting “determined at 24 hrs”, the Binding % result is on record as “++++ (++++indicates binding activity greater than 50%)”. With `C=CC(=O)N1CCN(c2ncnc3cc(-c4cccc5c4CCCN5)c(Cl)cc23)CC1` [Compound I-223, 1-(4-(6-chloro-7-(1,2,3,4-tetrahydroquinolin-5-yl)quinazolin-4-yl)piperazin-1-yl)prop-2-en-1-one], the Binding % result under setting [2] is on record as “+ (+indicates binding activity from 5% to 25%)”.

For the compound `C=CC(=O)N1CC(N2CCN(C(=O)CNc3cc(Cl)c(Cl)cc3Cl)CC2)C1` [II-22, 1-(3-(4-(2-(2,4,5-trichlorophenyl-amino)acetyl)-piperazin-1-yl)azetidin-1-yl)prop-2-en-1-one], the Binding % result (determined at 24 hrs) is listed as “+ (+indicates binding activity from 5% to 15%)”. On to `N#C/C(=C\c1cncs1)C(=O)N1CCN(c2ncnc3c(F)c(-c4c(O)cccc4F)c(Cl)cc23)CC1` [Compound I-283, (E)-2-(4-(6-chloro-8-fluoro-7-(2-fluoro-6-hydroxyphenyl)quinazolin-4-yl)piperazine-1-carbonyl)-3-(thiazol-5-yl)acrylonitrile], for which the Binding % entry under setting [1] is “++ (++indicates binding activity greater than 25% and up to 50%)”. On to `C=CC(=O)NC1CN(C2CN(C(=O)CNc3cc(Br)c(Cl)cc3O)C2)C1` [II-36, N-(1′-(2-(5-bromo-4-chloro-2-hydroxyphenylamino)-acetyl)-1,3′-biazetidin-3-yl)acrylamide], for which the Binding % result (determined at 24 hrs) is reported as “++++ (++++indicates binding activity greater than 50%)”. `C=CC(=O)N1CCN(c2ncnc3cc(-c4ccccc4C(N)=O)c(Cl)cc23)CC1` [Compound I-98, 2-(4-(4-acryloylpiperazin-1-yl)-6-chloroquinazolin-7-yl)benzamide]: the Binding % result under setting [2] is given as “+ (+indicates binding activity from 5% to 25%)”. The same measure, in the same setting: in the case of `C=CC(=O)N1CCN(c2ncnc3cc(-c4cccc(O)c4)c(Cl)cc23)CC1` [Compound I-75, 1-(4-(6-chloro-7-(3-hydroxyphenyl)quinazolin-4-yl)piperazin-1-yl)prop-2-en-1-one] it was “+ (+indicates binding activity from 5% to 25%)”; in that of `C=CC(=O)N1CCN(c2ncnc3cc(-c4ccccc4C#N)c(Cl)cc23)CC1` [Compound I-105, 2-(4-(4-acryloylpiperazin-1-yl)-6-chloroquinazolin-7-yl)benzonitrile], “+ (+indicates binding activity from 5% to 25%)”. As for `C=CC(=O)N1CCN(c2ncnc3cc(Cl)c(-c4ccc(Cl)cc4)cc23)CC1C#N` (stereo not drawn) [Compound I-47, 1-acryloyl-4-(7-chloro-6-(4-chlorophenyl)quinazolin-4-yl)piperazine-2-carbonitrile], the Binding % entry under setting [3] was “++++ (++++indicates binding activity greater than 75%)”. Regarding `C=CC(=O)N1CCN(c2ncnc3cc(-c4cccc5c4CC(=O)N5)c(Cl)cc23)CC1` [Compound I-160, 4-(4-(4-acryloylpiperazin-1-yl)-6-chloroquinazolin-7-yl)indolin-2-one], under setting [2], the Binding % result is listed as “+ (+indicates binding activity from 5% to 25%)”. On the same count and under the same terms, in the case of `C=CC(=O)N1CCN(c2ncnc3cc(-c4cc(F)ccc4F)c(Cl)cc23)CC1` [Compound I-113, 1-(4-(6-chloro-7-(2,5-difluorophenyl)quinazolin-4-yl)piperazin-1-yl)prop-2-en-1-one] it was “+++ (+++indicates binding activity greater than 50% and up to 75%)”. As for `C=CC(=O)N1CCN(c2ncnc3cc(-c4cc(O)ccc4Cl)c(Cl)cc23)CC1` [Compound I-128, 1-(4-(6-chloro-7-(2-chloro-5-hydroxyphenyl)quinazolin-4-yl)piperazin-1-yl)prop-2-en-1-one], the Binding % entry under setting [2] was “+++ (+++indicates binding activity greater than 50% and up to 75%)”.

As for `C=CC(=O)N1CCN(c2ncnc3cc(Cl)c(-c4ccccc4)cc23)CC1` [Compound I-18, 1-(4-(7-chloro-6-phenylquinazolin-4-yl)piperazin-1-yl)prop-2-en-1-one], under setting [3], the Binding % entry is “++ (++indicates binding activity greater than 25% and up to 50%)”. As to `C=CC(=O)N1CCN(c2ncnc3cc(Cl)c(-c4ccc(Cl)cc4)cc23)C[C@H]1CO` [Compound I-63, (S)-1-(4-(7-chloro-6-(4-chlorophenyl)quinazolin-4-yl)-2-(hydroxymethyl)piperazin-1-yl)prop-2-en-1-one], the Binding % result under setting [2] is “+ (+indicates binding activity from 5% to 25%)”. For `C=CC(=O)N1CCN(c2ncnc3cc(-c4cccc5cncnc45)c(Cl)cc23)CC1` [Compound I-180, 1-(4-(6-chloro-7,8′-biquinazolin-4-yl)piperazin-1-yl)prop-2-en-1-one], the Binding % result under setting [2] is on record as “+ (+indicates binding activity from 5% to 25%)”.

For the compound `C=CC(=O)N1CCN(c2nc(OCCN(C)C)nc3cc(-c4c(C)ccc5[nH]ncc45)c(Cl)cc23)CC1` [Compound 314, 1-(4-(6-chloro-2-(2-(dimethylamino)ethoxy)-7-(5-methyl-1H-indazol-4-yl)quinazolin-4-yl)piperazin-1-yl)prop-2-en-1-one], the Binding % result under setting [1] is “++++ (++++indicates binding activity greater than 75%)”.

In the case of `C=CC(=O)N1CCN(c2ncnc3cc(-c4cc(Cl)ccc4F)c(Cl)cc23)CC1` [Compound I-115, 1-(4-(6-chloro-7-(5-chloro-2-fluorophenyl)quinazolin-4-yl)piperazin-1-yl)prop-2-en-1-one], the Binding % entry under setting [2] was “+++ (+++indicates binding activity greater than 50% and up to 75%)”. For `C=CC(=O)N1CCN(c2nc(OCCCN(C)C)nc3c(F)c(-c4c(C)ccc5[nH]ncc45)c(Cl)cc23)CC1` [Compound 339, 1-(4-(6-chloro-2-(3-(dimethylamino)propoxy)-8-fluoro-7-(5-methyl-1H-indazol-4-yl)quinazolin-4-yl)piperazin-1-yl)prop-2-en-1-one], under setting [1], the Binding % entry is reported as “++++ (++++indicates binding activity greater than 75%)”.

On to `C=CC(=O)N1CCN(c2ncnc3cc(Cl)c(-c4ccc(Cl)s4)cc23)CC1` [Compound I-34, 1-(4-(7-chloro-6-(5-chlorothiophen-2-yl)quinazolin-4-yl)piperazin-1-yl)prop-2-en-1-one], for which the Binding % entry under setting [3] is “+++ (+++indicates binding activity greater than 50% and up to 75%)”.
